In patent US9580390B2, “Indazole compounds as kinase inhibitors and method of treating cancer with same” (University Health Network, priority 2011, dated 2017):

Assays:
[1] = system: ovarian cancer cells (PA-1); assay: Cancer cell line growth inhibition (SRB assay); format: cell-based; conditions: Homo sapiens, PA-1; read-out: Cancer Cell Line GI50 Range PA-1
[2] = system: colon cancer cells (HCT116); assay: Cancer cell line growth inhibition (SRB assay); format: cell-based; conditions: Homo sapiens, HCT-116; read-out: Cancer Cell Line GI50 Range HCT116
Breast cancer cells = assay: Cancer cell line growth inhibition (SRB assay); format: cell-based; conditions: Homo sapiens; MDA-MB-468; read-out: Cancer Cell Line GI50 Range MDA-MB-468
human TTK = molecular target: T1, human TTK (Homo sapiens, UniProt P33981); assay: TTK inhibition assay (indirect ELISA); format: biochemical; conditions: read-out: TTK IC50 Range
T1 construct: amino terminal GST fusion of full length human TTK; purchased Invitrogen
T1 sequence (P33981 1-857): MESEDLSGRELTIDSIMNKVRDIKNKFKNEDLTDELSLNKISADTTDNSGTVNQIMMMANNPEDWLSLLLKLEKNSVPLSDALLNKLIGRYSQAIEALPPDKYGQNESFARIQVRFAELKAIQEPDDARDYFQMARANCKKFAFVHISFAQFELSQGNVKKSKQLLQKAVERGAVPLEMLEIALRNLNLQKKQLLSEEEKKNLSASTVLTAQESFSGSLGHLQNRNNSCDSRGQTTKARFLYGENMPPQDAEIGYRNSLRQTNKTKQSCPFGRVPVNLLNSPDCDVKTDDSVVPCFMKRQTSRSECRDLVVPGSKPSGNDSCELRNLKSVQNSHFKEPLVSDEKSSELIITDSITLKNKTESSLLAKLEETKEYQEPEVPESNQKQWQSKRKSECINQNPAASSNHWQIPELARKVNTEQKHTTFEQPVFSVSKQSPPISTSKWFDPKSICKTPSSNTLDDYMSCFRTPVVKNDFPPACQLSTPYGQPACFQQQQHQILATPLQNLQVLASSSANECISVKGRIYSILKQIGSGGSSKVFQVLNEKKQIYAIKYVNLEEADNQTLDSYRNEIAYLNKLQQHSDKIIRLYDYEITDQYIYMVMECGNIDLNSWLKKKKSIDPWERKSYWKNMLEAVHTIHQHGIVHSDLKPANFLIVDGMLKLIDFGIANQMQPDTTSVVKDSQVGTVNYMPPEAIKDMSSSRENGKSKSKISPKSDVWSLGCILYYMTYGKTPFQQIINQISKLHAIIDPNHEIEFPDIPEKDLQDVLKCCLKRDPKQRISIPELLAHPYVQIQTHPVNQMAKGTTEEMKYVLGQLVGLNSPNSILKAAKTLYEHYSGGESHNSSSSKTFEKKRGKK

Structure (SMILES)	GI50 [1] [nM]	GI50 [2] [nM]	GI50 (Breast cancer cells) [nM]	IC50 (human TTK) [nM]
CC(C)(O)CN1CCC(Oc2ccc(-c3n[nH]c4ccc(C(=O)N[C@H](c5ccsc5)C5CC5)cc34)cc2)CC1 [Example A218, (S)-N-(cyclopropyl(thiophen-3-yl)methyl)-3-(4-((1-(2-hydroxy-2-methylpropyl)piperidin-4-yl)oxy)phenyl)-1H-indazole-5-carboxamide]	100 to 500	100 to 500	100 to 500	< 100
O=C(N[C@H](c1ccsc1)C1CC1)c1ccc2[nH]nc(-c3ccc(OC4CCN(C[C@@H](O)C(F)(F)F)CC4)cc3)c2c1 [Example A223, N-((S)-cyclopropyl(thiophen-3-yl)methyl)-3-(4-((1-((R)-3,3,3-trifluoro-2-hydroxypropyl)piperidin-4-yl)oxy)phenyl)-1H-indazole-5-carboxamide]	100 to 500	100 to 500	> 500	< 100
O=C(N[C@@H](c1ccsc1)C1CC1)c1ccc2[nH]nc(-c3ccc(OC4CCN(C[C@@H](O)C(F)(F)F)CC4)cc3)c2c1 [Example A224, N-((R)-cyclopropyl(thiophen-3-yl)methyl)-3-(4-((1-((R)-3,3,3-trifluoro-2-hydroxypropyl)piperidin-4-yl)oxy)phenyl)-1H-indazole-5-carboxamide]	100 to 500	100 to 500	> 500	< 100
O=C(N[C@H](c1ccccn1)C1CC1)c1ccc2[nH]nc(-c3ccc(OC4CCN(C[C@@H](O)C(F)(F)F)CC4)cc3)c2c1 [Example A225, N-((S)-cyclopropyl(pyridin-2-yl)methyl)-3-(4-((1-((R)-3,3,3-trifluoro-2-hydroxypropyl)piperidin-4-yl)oxy)phenyl)-1H-indazole-5-carboxamide]	< 100	< 100	100 to 500	< 100
CN1[C@@H]2CC[C@H]1C[C@@H](Oc1ccc(-c3n[nH]c4ccc(C(=O)NC(c5ccccc5)C(F)F)cc34)cc1)C2 (stereo partly drawn) [Example A227, N-(2,2-difIuoro-1-phenylethyl)-3-(4-(((1R,3R,5S)-8-methyl-8-azabicyclo[3.2.1]octan-3-yl)oxy)phenyl)-1H-indazole-5-carboxamide]	100 to 500	< 100	> 500	< 100
O=C(N[C@H](c1ccccn1)C1CCCC1)c1ccc2[nH]nc(-c3ccc(OC4CCN(C[C@@H](O)C(F)(F)F)CC4)cc3)c2c1 [Example A229, N((S)-cyclopentyl(pyridin-2-yl)methyl)-3-(4-((1-((R)-3,3,3-trifluoro-2-hydroxypropyl)piperidin-4-yl)oxy)phenyl)-1H-indazole-5-carboxamide]	100 to 500	100 to 500	100 to 500	< 100
CC1(C)CC(=O)c2cc(-c3n[nH]c4ccc(C(=O)N[C@H](c5ccccn5)C5CC5)cc34)ccc2O1 [Example A236, (S)-N-(cyclopropyl(pyridin-2-yl)methyl)-3-(2,2-dimethyl-4-oxochroman-6-yl)-1H-indazole-5-carboxamide]	> 500	> 500	> 500	< 100
CC1=CC(C)(C)Oc2ccc(-c3n[nH]c4ccc(C(=O)N[C@H](c5ccccn5)C5CC5)cc34)cc21 [Example A237, (S)-N-(cyclopropyl(pyridin-2-yl)methyl)-3-(2,2,4-trimethyl-2H-chromen-6-yl)-1H-indazole-5-carboxamide]	> 500	> 500	> 500	< 100
Cc1cc(=O)n(C)c2ccc(-c3n[nH]c4ccc(C(=O)N[C@H](c5ccccn5)C5CC5)cc34)cc12 [Example A238]	100 to 500	100 to 500	> 500	< 100
Cc1cc(=O)n(C)c2ccc(-c3n[nH]c4ccc(C(=O)N[C@H](c5ccccn5)C5CCCC5)cc34)cc12 [Example A239, (S)-N-(cyclopentyl(pyridin-2-yl)methyl)-3-(1,4-dimethyl-2-oxo-1,2-dihydroquinolin-6-yl)-1H-indazole-5-carboxamide]	> 500	> 500	> 500	< 100
Cn1ccc(=O)c2cc(-c3n[nH]c4ccc(C(=O)N[C@H](c5ccccn5)C5CCCC5)cc34)ccc21 [Example A240, (S)-N-(cyclopentyl(pyridin-2-yl)methyl)-3-(1-methyl-4-oxo-1,4-dihydroquinolin-6-yl)-1H-indazole-5-carboxamide]	> 500	> 500	> 500	< 100
O=C(N[C@H](c1ccccn1)C1CC1)c1ccc2[nH]nc(-c3ccc4c(c3)C(=O)CCO4)c2c1 [Example A241]	> 500	> 500	> 500	< 100
CN1CCC(=O)c2cc(-c3n[nH]c4ccc(C(=O)N[C@H](c5ccccn5)C5CCCC5)cc34)ccc21 [Example A242, (S)-N-(cyclopentyl(pyridin-2-yl)methyl)-3-(1-methyl-4-oxo-1,2,3,4-tetrahydroquinolin-6-yl)-1H-indazole-5-carboxamide]	100 to 500	> 500	> 500	< 100
CS(=O)(=O)c1cc(-c2n[nH]c3ccc(C(=O)NC(c4ccccn4)C4CC4)cc23)ccc1OC1CCNCC1 (stereo not shown) [Example A243, N-(cyclopropyl(pyridin-2-yl)methyl)-3-(3-(methylsulfonyl)-4-(piperidin-4-yloxy)phenyl)-1H-indazole-5-carboxamide]	> 500	> 500	> 500	< 100
CN1CCC2(CC1)CC(=O)c1cc(-c3n[nH]c4ccc(C(=O)N[C@H](c5ccccc5)C5CC5)cc34)ccc1O2 [Example A251, (S)-N-(cyclopropyl(phenyl)methyl)-3-(1′-methyl-4-oxospiro[chroman-2,4′-piperidin]-6-yl)-1H-indazole-5-carboxamide]	100 to 500	100 to 500	100 to 500	< 100
CN1C2CCC1CC(Oc1ccc(-c3n[nH]c4ccc(C(=O)N[C@H](c5ccccn5)C5CCCC5)cc34)cc1)C2 (stereo partly drawn) [Example A252, N-((S)-cyclopentyl(pyridin-2-yl)methyl)-3-(4-(((1R,3R,5S)-8-methyl-8-azabicyclo[3.2.1]octan-3-yl)oxy)phenyl)-1H-indazole-5-carboxamide]	< 100	< 100	< 100	< 100
CN1CC2(CC(=O)c3cc(-c4n[nH]c5ccc(C(=O)N[C@H](c6ccccc6)C6CC6)cc45)ccc3O2)C1 [Example A254, (S)-N-(cyclopropyl(phenyl)methyl)-3-(1-methyl-4′-oxospiro[azetidine-3,2′-chroman]-6′-yl)-1H-indazole-5-carboxamide]	100 to 500	100 to 500	> 500	< 100
CC(C)[C@H](NC(=O)c1ccc2[nH]nc(-c3ccc4c(c3)C(=O)CC3(CN(C)C3)O4)c2c1)c1ccccc1Cl [Example A255, (S)-N-(1-(2-chlorophenyl)-2-methylpropyl)-3-(1-methyl-4′-oxospiro[azetidine-3,2′-chroman]-6′-yl)-1H-indazole-5-carboxamide]	100 to 500	100 to 500	100 to 500	< 100
CN1CC2(CC(O)c3cc(-c4n[nH]c5ccc(C(=O)N[C@H](c6ccccc6)C6CC6)cc45)ccc3O2)C1 (stereo partly drawn) [Example A256, N-((S)-cyclopropyl(phenyl)methyl)-3-(4′-hydroxy-1-methylspiro(azetidine-3,2-chroman]-6′-yl)-1H-indazole-5-carboxamide]	> 500	> 500	> 500	100 to 500
O=C(N[C@H](c1ccccn1)C1CC1)c1ccc2[nH]nc(-c3ccc4c(c3)C(=O)CC3(CCOCC3)O4)c2c1 [Example A262, (S)-N-(cyclopropyl(pyridin-2-yl)methyl)-3-(4-oxo-2′,3′,5′,6′-tetrahydrospiro[chroman-2,4′-pyran]-6-yl)-1H-indazole-5-carboxamide]	100 to 500	100 to 500	100 to 500	< 100
CC(C)[C@H](NC(=O)c1ccc2[nH]nc(-c3ccc(N4C5CCC4CC(O)C5)cc3)c2c1)c1ccccc1Cl (stereo partly drawn) [Example A514, N-((S)-1-(2-chlorophenyl)-2-methylpropyl)-3-(4-((1R,3R,5S)-3-hydroxy-8-azabicyclo[3.2.1]octan-8-yl)phenyl)-1H-indazole-5-carboxamide]			< 100	< 100
